Data as given in patent US20100099756A1, “USES OF INCENSOLE, INCENSOLE ACETATE AND DERIVATIVES THEREOF” (YISSUM RESEARCH DEVELOPMENT COMPANY OF THE HEBREW …, priority 2006, published 2010).

Assays:
[1] = test system: locomotion and cataleptic response; assay: Open field test and ring test; format: in vivo, female Sabra mice; details: i.p., Sabra mice
Protocol: To study the functional effects of IA on the CNS, IA was assayed in a panel of standard behavioral assays in mice (female Sabra strain, 15-20 weeks old), namely: the elevated plus maze [Crawley, J. N. What's Wrong with my Mouse? Behavioral Phenotyping of Transgenic and Knockout Mice (Wiley-Liss, New York, 2000)], the Porsolt forced-swimming test [Petit-Demouliere, B., Chenu, F. & Bourin, M. Forced swimming test in mice: a review of antidepressant activity. Psychopharmacology 177, 245-255 (2005)], locomotion in the open field test and cataleptic response in a ring test [Fride, E. & Mechoulam, R. Pharmacological activity of the cannabinoid receptor agonist, anandamide, a brain constituent. Eur. J. Pharmacol. 231, 313-314 (1993). The elevated plus maze assay is based on the preference of mice for the closed arms of a maze, apparently due to fear of open spaces.

[2] = test system: receptors known to be involved in psychoactivity; assay: Interaction with receptors involved in psychoactivity
[3] = target: TRPV1 (Homo sapiens, UniProt Q8NER1); assay: Whole-cell voltage-clamp, TRPV1(+) cells; format: cell-based; details: IA 200 μM
Protocol: TRPV3(+) response to IA is shown for reference. *, p<0.001. Error bars represent SEM, n=4-5.
Electrophysiological recording. Currents were recorded using whole-cell voltage-clamp. Pipettes were pulled from microcapillary glass (A-M Systems). A coverslip containing cells was transferred to a 300 μL chamber that was constantly perfused (1-2 mL/min) with external solution. Voltage protocols were generated and data were digitized and recorded using Pulse (HEKA Elektronik) software in conjunction with an Axopatch 200A amplifier (Axon Instruments), and the data analyzed using an in-house Visual Basic (Microsoft) analysis program.
The pipette solution contained (in mM): 121.5 Kgluconate, 10 HEPES, 17 KCl, 9 NaCl, 1 MgCl2, 0.2 EGTA, 2 MgATP, and 0.5 NaATP, pH 7.2. The external solution contained (in mM): 120 NaCl, 5 KCl, 1 MgCl2, 2 CaCl2, 10 Glucose and 20 HEPES, pH 7.4 with NaOH. The measured charge (pC) was defined as the charge elicited between -85 and -45 mV by a ramping voltage stimulus (−85 mV to +35 mV, 0.54 mV/msec; holding potential -55 mV). Currents were sampled at 5 kHz. Experimental and control cells were alternated whenever possible. Control values were obtained from adjacent cells with no detectable YFP fluorescence, presumed to be non-TRPV3-expressing.

[4] = test system: closed head injury; assay: Neurological severity score (NSS) recovery after closed head injury (CHI); format: in vivo, mice; details: 50 mg/kg i.p.
Protocol: This effect was sustained from 24 h to 21 days following injury as determined by the Mann-Whitney test (n=9-10 per group; * p<0.01; **p<0.001, as compared to vehicle treated, at the same day). (B) Mice were subjected to the object recognition test (Example 6) 3, 7, 14 and 21 days after CHI. The absolute time spent exploring each of the two objects was recorded and the % time calculated. At baseline (bl), when presented with two identical objects, exploration time of each object was about 50% in both groups. In the test (T) situation, after one of the objects was replaced by a novel one the % time spent exploring the new object was calculated.
At 1 h after CHI, the functional status of the mice was evaluated according to a set of 10 neurobehavioral tasks (neurological severity score, NSS) that tests reflexes, alertness coordination, and motor abilities. One point was awarded for absence of reflex or failure to perform a particular task. […] Mice were equally divided to vehicle\ IA groups according to their NSS scores. Only mice with NSS>4 at 1 h after injury were included in the study. […] Recovery (ΔNSSt) was defined as the difference between NSS1h and NSS measured at any later time point and was determined at several time points up to 21 days following CHI.

[5] = test system: NF-κB (p65 sub-unit); assay: p65 subunit immunostaining, nuclear accumulation of NF-κB in HeLa cells; format: cell-based; details: TNFα stimulation, IA 140 μM
Protocol: (A) IA inhibits IKK phosphorylation. HeLa cells were stimulated with TNFα (20 ng/ml for 20 minutes) in the absence or presence of IA (140 μM) as shown. Whole cell extracts were prepared and analyzed for the phosphoryation of IKKα and IKKβ by Western blotting (WB). (B) HeLa cells were stimulated with TNFα (20 ng/ml for 20 minutes) in the absence or presence of IA (140 μM). Cells were fixed and then stained with rabbit anti-p65 followed by anti-rabbit Rhodamine Red-labeled secondary Ab. and with DAPI for nuclei location (not shown). (B1) HeLa cells, no treatment; (B2) HeLa cells +IA; (B3) HeLa cells +TNF; (B4) HeLa cells +IA+TNF. The cells were examined under an Axioscope Zeiss microscope with a plan-Neofluor * 60 lens. Results of one of three independent experiments are shown.
p65 Subunit Immunostaining. HeLa Cells were preincubated with IA and then stimulated with TNFα as described in the IκBα degradation assay above. Cells were then fixed with formaldehyde 1%, permeabilized with 0.25% Triton X-100, stained with rabbit anti-p65 (Santa Cruz, Calif., USA) and visualized with anti-rabbit Rhodamine Red-labeled secondary antibody (Jackson ImmunoResearch, Baltimore, USA). Cells were also stained with DAPI (blue) for nuclei location (data not shown). The cells were examined under an Axioscope Zeiss microscope with a plan-Neofluor * 60 lens.

Chain of TRPV1 (Q8NER1 whole entry): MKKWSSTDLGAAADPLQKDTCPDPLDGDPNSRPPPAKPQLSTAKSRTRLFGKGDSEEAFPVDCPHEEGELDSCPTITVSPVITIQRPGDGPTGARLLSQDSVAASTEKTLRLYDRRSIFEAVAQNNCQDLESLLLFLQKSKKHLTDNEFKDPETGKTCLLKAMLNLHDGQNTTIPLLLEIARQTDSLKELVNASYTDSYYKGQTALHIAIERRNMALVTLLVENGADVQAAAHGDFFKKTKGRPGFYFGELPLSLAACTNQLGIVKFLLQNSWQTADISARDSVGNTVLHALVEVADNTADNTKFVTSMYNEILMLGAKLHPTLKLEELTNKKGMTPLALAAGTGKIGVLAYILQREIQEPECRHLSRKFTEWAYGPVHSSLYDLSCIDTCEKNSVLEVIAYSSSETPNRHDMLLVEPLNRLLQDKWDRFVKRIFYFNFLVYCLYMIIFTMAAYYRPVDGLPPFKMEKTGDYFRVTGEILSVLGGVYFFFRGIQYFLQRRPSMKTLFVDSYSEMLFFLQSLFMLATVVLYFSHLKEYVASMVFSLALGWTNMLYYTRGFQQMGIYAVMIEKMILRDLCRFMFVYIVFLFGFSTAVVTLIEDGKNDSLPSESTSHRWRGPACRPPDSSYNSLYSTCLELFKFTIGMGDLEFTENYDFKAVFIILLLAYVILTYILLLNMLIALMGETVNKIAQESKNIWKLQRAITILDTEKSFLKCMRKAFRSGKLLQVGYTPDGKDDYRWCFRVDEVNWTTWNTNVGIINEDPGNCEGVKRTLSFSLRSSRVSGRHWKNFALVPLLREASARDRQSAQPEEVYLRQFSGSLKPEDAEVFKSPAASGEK

With `CC(=O)OC1CC/C(C)=C/CC/C(C)=C/CC2(C(C)C)CCC1(C)O2` (stereo not shown) [IA, incensole acetate] the “immobility on a ring” value [1] was “impaired immobility on a ring”, the open field behavior [1] was “significant reduction of open field behavior” and the “interaction with receptors known to be involved in psychoactivity” value [2] was “does not interact”. The “current activation in TRPV1(+) cells” value [3] was “does not activate currents”, the “ΔNSS (recovery of motor ability)” value ([4]; 24 h after injury, P=0.002 vs vehicle) was 1.00±0.12 and the “ΔNSS at subsequent time points” value ([4]; up to 3 weeks post injury, vs vehicle) was “significantly higher”. For the same compound, the “nuclear accumulation of NF-κB (p65)” value [5] was “inhibited the nuclear accumulation of NF-κB”.
